{"source": "patent US20050033056A1", "about": "“Hydroxylated indole derivatives and uses thereof” (priority 2001, published 2005)", "biological_target": "CYP2C19 (Homo sapiens, UniProt P33261)", "sequence (P33261 whole entry)": "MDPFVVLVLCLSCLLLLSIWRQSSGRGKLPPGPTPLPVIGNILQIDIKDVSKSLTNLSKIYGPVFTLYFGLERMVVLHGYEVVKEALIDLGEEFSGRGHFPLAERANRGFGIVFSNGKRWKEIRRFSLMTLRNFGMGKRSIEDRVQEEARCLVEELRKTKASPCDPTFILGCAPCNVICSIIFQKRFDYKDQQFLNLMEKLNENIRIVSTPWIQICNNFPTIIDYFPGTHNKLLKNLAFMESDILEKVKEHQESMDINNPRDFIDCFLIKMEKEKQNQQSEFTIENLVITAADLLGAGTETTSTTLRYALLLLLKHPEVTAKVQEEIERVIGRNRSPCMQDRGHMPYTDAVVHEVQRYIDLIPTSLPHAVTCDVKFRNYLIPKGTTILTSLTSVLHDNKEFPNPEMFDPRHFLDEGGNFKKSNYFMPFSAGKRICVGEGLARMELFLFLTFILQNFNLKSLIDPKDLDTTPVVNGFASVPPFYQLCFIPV", "assay": "Compound 1 metabolism / metabolite formation by recombinant CYP2C19", "assay_type": "in vitro ADME", "design": "purchased Gentest Corp. (Woburn, Mass.); host or cells: insect cells (microsomal preparation)", "experimental": "The metabolism of Compound 1 was determined by the disappearance of Compound 1 or the appearance of Compound 1 metabolites in reaction mixtures as compared to respective controls. Compound 1 was incubated in the reconstituted in vitro reaction systems containing pooled human liver S9 fractions, microsomal preparations, or recombinant hepatic CYP forms, including CYP1A2, CYP2C9, CYP2C19, CYP2D6, CYP2E1, and CYP3A4. The reaction mixture (total volume of 250 μL) contained 0.5 mg of liver microsomal protein, 50 or 25 pmol of recombinant CYP, and Compound 1 (50-80 μM) in 50 mM Tris buffer containing 15 mM MgCl2 (pH 7.4). After incubating at 37° C. with gentle shaking for 1 minute, the reaction was initiated by adding 25 μL of NADPH solution (20 mg/mL), and was carried out for 1 hour. The reaction was terminated by quickly cooling the test tube on ice, followed by the addition of an equal volume of 100% methanol. The samples were centrifuged in a desktop centrifuge at 14,000 rpm for 5 minutes, and the supernatants were filtered through syringe filters (13 mm, 0.45 μm). The filtrates were subjected to analysis using LC/MS (ion trap) or LC/MS/MS.\n1. LC/MS (LCQ ion trap mass spectrometer, Finnigan Corp., San Jose, Calif.): Hewlett Packard 1100 HPLC system (Waldbronn, Germany) consisted of a binary pump, an autosampler, a column compartment unit, and an online variable wavelength UV detector (VWD). The detector was monitored at 270 nm, which is the UVmax of Compound 1 predetermined by scanning between 225-400 nm using a photodiode array detector (PDA). The metabolites were separated on a Hewlett Packard Eclipse C18 column (150×2.1 mm). The mobile phases were 10 nmM ammonium acetate at pH 4.8 (A) and acetonitrile (B). The gradient (B) was 10% (0-6 minutes), 22% (12-22 minutes), 90% (25-30 minutes), and 10% (31 minutes and after). The flow rate was 0.25 mL/minute. Software Navigator (Version 1.2, Finnigan Corp.) was used to control the HPLC and MS and to acquire the data. The MS was operated at positive electrospray ionization (ESI) with 5.2 kV ionization potential and 220° C. heated capillary temperature. The product ion spectra were generated under 24V collision energy, which was optimized for the fragmentation of Compound 1.\n2. LC/MS/MS (SCIEX API2000 triple quadrupole mass spectrometer, PE Biosystem, Foster City, Calif.): The same HPLC system described above was coupled with a tandem mass spectrometer. The metabolites were separated on a Sulpelco Discovery C18 column (150×2.1 mm), and the mobile phase described previously was run at 1.0 mL/min with a 1:10 split. The gradient (B) was 20% (0-6 minutes), 60% (14-18 minutes), 95% (20-24 minutes), and 20% (25 minutes and after). The operation of the HPLC and the MS/MS was controlled by MacChrom (Version 1.6, PE Biosystem). […]"}
{"smiles": "CNC(=O)Cc1ccc2ccn(C3CCN(CCc4ccccc4F)CC3)c2c1", "note": "[Compound 1, N-methyl-[1-[1-(2-fluorophenethyl)piperidine-4-yl]-1H-indol-6-yl] acetamide]", "values": [{"measurement": "metabolism of Compound 1 by CYP2C19 (in words)", "setting": "approximately 50 μM of Compound 1", "result": "metabolized"}, {"measurement": "Rel. Amount (%)", "setting": "recombinant CYP2C19, estimated by UV absorbance at 270 nm, metabolite formed or Compound 1 left after 1 hour with NADPH", "result": 42, "unit": "%"}]}
